# Source: US20240024298A1, “COMPOSITIONS AND METHODS FOR THE TREATMENT OF HPV-ASSOCIATED DISEASE STATES” (Children's Hospital Medical Center, priority 2022, published 2024)
# Tests used:
# Assay type in all cases: cell-based
# [1] = tested on: HPV+ keratinocytes grown into organotypic epithelial rafts; assay: EdU proliferation in HPV+ organotypic epithelial rafts
# Protocol: (§1) On raft day 14, the tissues were harvested and lysed with RIPA buffer to extract protein for western blotting. […] Beta-actin was used to show equal protein loading. (B) HPV− and HPV+ rafts were treated with increasing doses of OSMI-1, an inhibitor of OGT activity, from day 8 to day 14 of the raft culturing protocol. EdU, a thymidine analog that incorporates into DNA during DNA synthesis, was added to the media on day 13. 24 h later, on raft day 14, tissues were fixed in PFA for paraffin-embedding, sectioning, and immunofluorescence (IF) staining. Representative IF images are shown with nuclei stained with DAPI (blue), and proliferating cells visualized with click chemistry to detect EdU incorporation (pink). Quantification of the number of EdU+ cells per field is shown to the right. […] 2-way ANOVA was used to determine significance. Representative images shown. n=3.
# (§2) Representative IF images are shown with nuclei stained with DAPI (blue), proliferating cells visualized with click chemistry to detect EdU incorporation (white), basal cell layer keratinocytes stained with collagen 17A (COL17A; green) and differentiated layer keratinocytes stained with keratin 10 (K10; red). Quantifications of the total (top graph) and suprabasal (lower graph) number of EdU+ cells per field are shown to the right. […] 2-way ANOVA was used to determine significance. Representative images shown. n=3.
# [2] = tested on: HPV− keratinocytes grown into organotypic epithelial rafts; assay: EdU proliferation in HPV− organotypic epithelial rafts
# Protocol: as §1, §2
# [3] = tested on: HPV+ keratinocytes 3D spheroids; assay: 3D spheroid area, brightfield microscopy; conditions: HPV+ spheres, culture day 4, n=4
# Protocol: FIG. 3 (A) HPV+ and HPV− keratinocytes were seeded in round-bottom plates to form 3D spheroids (Day 0). 48 h after plating the cells (Day 2), increasing doses of Eliglustat were added to the media. 48 h after adding the drug treatment (Day 4), spheroids were imaged with brightfield microscopy and images quantified for sphere area. n=4. (B) Quantification of sphere area on culture day 4 after treatment with increasing doses of Eliglustat for 48 h.
# [4] = 6.25 uM OSMI-1, treated raft day 8 to day 14, EdU added day 13, n=3
# [5] = 25 uM OSMI-1 (highest dose tested), raft day 8 to day 14
# [6] = increasing doses of Eliglustat, raft day 8 to day 14, EdU added day 13, n=3
SMILES,"Proliferation (number of EdU+ cells per field) [1, 4]","Proliferation (number of EdU+ cells per field) [1, 5]","Proliferation (number of EdU+ cells per field) [2, 4]","Proliferation (number of EdU+ cells per field) [2, 5]","Proliferation (total and suprabasal number of EdU+ cells per field) [1, 6]","Proliferation (total and suprabasal number of EdU+ cells per field) [2, 6]","Sphere area ([3]; 25 uM Eliglustat (highest dose tested), 48 h)",Sphere area ([3]; increasing doses of Eliglustat for 48 h)
COc1ccccc1[C@@H](NS(=O)(=O)c1ccc2[nH]c(=O)ccc2c1)C(=O)N(Cc1ccco1)Cc1cccs1 [OSMI-1],significantly decreased,decreased proliferation,no effect on proliferation,decreased proliferation,,,,
CCCCCCCC(=O)N[C@H](CN1CCCC1)[C@H](O)c1ccc2c(c1)OCCO2 [Eliglustat],,,,,significantly decreased with increasing dose,no significant effect on proliferation,significantly reduce HPV+ sphere area to that of HPV− spheres,decreased concomitantly with increasing Eliglustat dose
